From patent publication US20020077322A1, “Protection of neurons against glutamate-induced damage in glaucoma and other conditions” (priority 2000, published 2002) come the findings set out here.

What all share (assay type): in vivo, C57/BL6 mice
Data set [1] relates to retinal ganglion cells. As to the kind of experiment: Effect of cannabinoid antagonists on WIN protection of NMDA-treated retinal ganglion cells (Example 3). To be noted: preliminary tests.
Method: A topical application of 0.5% proparacaine hydrochloride was administered prior to intravitreal injections. A small incision was made with a 22-gauge needle in the dorsal limbus, through the conjunctiva and sclera. A Hamilton syringe was passed through this incision at a 40 to 50 degree angle to the equator to administer the solution. All eyes were injected with 0.5 μl of solution. All procedures were performed under microscopy. […] These mice were not used in the analysis.
Tissue Preparation: Flat mount preparations of the retinae and counts of cells in the retinal ganglion cell layers were performed to evaluate cell loss. Ten days after intravitreal injections, animals were euthanized by an intraperitoneal overdose injection of pentobarbital. Animals were immediately perfused with 4% paraformaldehyde, and the eyes enucleated. The retinae were dissected and mounted onto gelatinized slides, ganglion cell layer up. […]
The test system of data set [2] is retinal ganglion cells. As to the kind of experiment: Intravitreal NMDA with or without co-injected WIN 55,212-2; counts of surviving cells in the retinal ganglion cell layer (Example 1). The procedure:
(§1) Experiments were performed on adult C57/BL6 mice of an average of 4 months, weighing 15-25 g. Animals were given food and water ad libitum. All studies were conducted in accordance with the principles and procedures outlined in the National Institute of Health (NIH) Guide for the Care and Use of Laboratory Animals.
Three sterile solutions were administered by intravitreal injection: balanced saline solution, NMDA (Sigma) and NMDA plus WIN 55,212-2 (Sigma). The NMDA solution was comprised of 320 mM NMDA in balanced saline solution (net of 160 nmol of NMDA injected per eye). The WIN solution contained 0.5 mM WIN 55,212-2 in the NMDA solution using a DMSO vehicle (less than 0.1% of solution) to carry WIN (net of 0.25 nmol of WIN injected per eye).
(§2) Intravitreal Injections Mice were anaesthetized by intraperitoneal injection of 0.017 ml/g body weight of a solution containing 1.75% tribromoethanol and 1.75% tertiary amyl alcohol. A topical application of 0.5% proparacaine hydrochloride was administered prior to intravitreal injections. A small incision was made with a 22-gauge needle in the dorsal limbus, through the conjunctiva and sclera. A Hamilton syringe was passed through this incision at a 40 to 50 degree angle to the equator to administer the solution. All eyes were injected with 0.5 μl of solution. All procedures were performed under microscopy. Occasionally this procedure produced cataracts in mice (less than 5%) due to damage to the lens with the syringe. These mice were not used in the analysis.
Tissue Preparation Flat mount preparations of the retinae and counts of cells in the retinal ganglion cell layers were performed to evaluate cell loss. Ten days after intravitreal injections, animals were euthanized by an intraperitoneal overdose injection of pentobarbital. Animals were immediately perfused with 4% paraformaldehyde, and the eyes enucleated. The retinae were dissected and mounted onto gelatinized slides, ganglion cell layer up. Several radial cuts were made at the periphery, and the surface was cleared and flattened with a fine brush (camel hair, size 0). The flat mounted retinae were immersed overnight in a solution containing 10% formaldehyde and 90% alcohol. The sections were subsequently dehydrated and stained with 0.5-1% cresyl violet and enclosed with coverslips.
Morphometric Analysis (Quantification of Cell Loss in the Retinal Ganglion Cell Layer) The ganglion cell layer was imaged at 400×and cells were counted within 70×70 um grids. […] Quandrant counts from each retina were averaged to give the value for each eye. Morphologically distinguishable glial cells and vascular endothelial cells were excluded from the cell count, but no attempt was made to distinguish between ganglion and amacrine cells. […]

For data set [3], the system named is retinal ganglion cells. Kind of data set: Topical WIN55212-2 after intravitreal NMDA; counts of surviving retinal ganglion cells (Example 2). The procedure: as §1
Two sterile solutions were administered by intravitreal injection: balanced saline solution, and NMDA (Sigma). The NMDA solution was comprised of 320 mM NMDA in balanced saline solution (net of 160 nmol of NMDA injected per eye).
as §2, with “Injections:” for “Injections”, “0.5μl” for “0.5 μl”
Topical Application of cannabinoid: A topical application solution of WIN55212-2 (Sigma) was prepared in 2-hydroxypropyl-β-cyclodextrin (Sigma). This solution contained 2.4 mg of WIN55212-2 in 1 ml 2-hydroxypropyl-β-cyclodextrin.
10 μl of this WIN55212-2 solution was applied to the anterior surface of the eye. In the experiments described, it was applied three times daily on one eye only. The applications of the WIN solution began one day after the NMDA injections were made, to allow time for the surface of the eye to heal, and the topical applications were made for 9 days. Thus, while each eye received the NMDA injections, only one eye of each animal had the WIN solution applied onto it.
Tissue Preparation: Flat mount preparations of the retinae and counts of cells in the retinal ganglion cell layers were performed to evaluate cell loss. Ten days after intravitreal injections, animals were euthanized by an intraperitoneal overdose injection of pentobarbital. Animals were immediately perfused with 4% paraformaldehyde, and the eyes enucleated. The retinae were dissected and mounted onto gelatinized slides, ganglion cell layer up. Several radial cuts were made at the periphery, and the surface was cleared and flattened with a fine brush (camel hair, size 0). […]
Morphometric Analysis: The ganglion cell layer was imaged at 400X and 630X and cells were counted within 120×120 μm square grids. […]

Setting [4] is: intravitreal, 160 nmol NMDA per eye, 10 day period, vs saline eye.
[5] abbreviates: single intravitreal application, 0.25 nmol WIN per eye with NMDA, 10 days.

In the case of `COc1ccc(C(=O)c2c(C)n(CCN3CCOCC3)c3cc(I)ccc23)cc1` [AM 630], the “cell counts with CB2 antagonist in combination with WIN and NMDA” value with retinal ganglion cells [1] is “same cell counts as the WIN+NMDA eye”.
For `CN[C@H](CC(=O)O)C(=O)O` [NMDA, N-methyl-D-aspartate], the “loss of retinal ganglion cells caused by NMDA” value in the data set on retinal ganglion cells [2] (setting [4]) and with retinal ganglion cells [3] (setting [4]) was 70% each time.
For the compound `Cc1c(C(=O)c2cccc3ccccc23)c2cccc3c2n1[C@H](CN1CCOCC1)CO3` [WIN], in the data set with retinal ganglion cells [2] (FIG. 5 left pair of bars, data taken from Example 1), the “increase in number of surviving ganglion cells (NMDA+WIN vs NMDA eye)” value was “by a factor of two”. In the data set with retinal ganglion cells [2] (setting [5]), the “diminution of NMDA-induced ganglion cell loss” value turned out to be 80% and the “resulting loss of ganglion cells with NMDA plus WIN” value is 30%. Besides, the “excitotoxic damage in ganglion cell layer, photomicrographs (FIG. 4)” value in the data set on retinal ganglion cells [3] (NMDA-treated retina, unilateral topical WIN55212-2) is given as “ameliorated the excitotoxic damage”. The “retinal ganglion cells protected, contralateral eye (no WIN directly applied)” value in the data set on retinal ganglion cells [3] (WIN applied topically to the other eye, presumably systemic delivery) is “about 25%”. For the same compound, the “resulting loss of ganglion cells, NMDA plus topical WIN, treated eye” value in the data set on retinal ganglion cells [3] (topical WIN on days 2-9, 10 day period) is listed as 30%.
